{"source": "patent US9073880B2", "about": "“2-(2-phenylethenyl) 1,3-benzodiazepine derivatives useful for the treatment of cancer” (Yissum Research Development Company of the Hebrew …, priority 2010, dated 2015)", "key": {"[1]": {"test_system": "human melanoma A375 cells", "experiment": "Cell proliferation, A375 (Example 2)", "type": "cell-based", "conditions": "A-375, 72 hours, 0.1% DMSO, methylene blue", "experimental": "(§1) Human ovary cancer A2780 cells lines were seeded at a density of 5000 cells/well, human melanoma A375 cells were plated at a density of 2,500 cells/well, human colon carcinoma HCT15 cells were plated at a density of 3,000 cells/well, human prostate carcinoma PC3 cells were plated at a density of 1,500 cells/well, human breast carcinoma MCF7 cells were plated at a density of 5,000 cells/well, human breast carcinoma MDA MB 468 cells were plated at a density of 6,000 cells/well, human myeloma U266, RPMI8226 and CAG cells were plated at a density of 10,000 cells/well. All cells were plated in 96-well plates in 90 μl growth medium containing 10% FCS, 100 units/ml penicillin and 100 μg/ml streptomycin. Compound 3 was added a day later in […] of 1% DMSO in DDW to obtain final concentrations of 0, 0.1, 0.3, 1, 3, and 10 μM. The final concentration of DMSO (0.1% DMSO) was kept constant in all samples. […] The optical density values were read at 630 nm in ELISA plate reader. Non-adhered cells were exposed to WST-1 reagent for 5 hours following 72 hours treatment with the inhibitors, and optical density values were read at 630 nm in ELISA plate reader. The data was analyzed in Microsoft Excel, using the vehicle control as 100% proliferation. […]"}, "[2]": {"test_system": "human prostate carcinoma PC3 cells", "experiment": "Cell proliferation, PC3 (Example 2)", "type": "cell-based", "conditions": "PC-3, 72 hours, 0.1% DMSO, methylene blue", "experimental": "as §1"}, "[3]": {"test_system": "human colon carcinoma HCT15 cells", "experiment": "Cell proliferation, HCT15 (Example 2)", "type": "cell-based", "conditions": "HCT-15, 72 hours, 0.1% DMSO, methylene blue", "experimental": "as §1"}, "human myeloma CAG cells": {"test_system": "human myeloma CAG cells", "experiment": "Cell proliferation, CAG (Example 2)", "type": "cell-based", "conditions": "multiple myeloma, 72 hours, 0.1% DMSO, WST-1", "experimental": "as §1"}, "[4]": {"test_system": "human breast carcinoma MDA MB 468 cells", "experiment": "Cell proliferation, MDA MB 468 (Example 2)", "type": "cell-based", "conditions": "MDA-468, breast cancer, 72 hours, 0.1% DMSO", "experimental": "as §1"}, "[5]": {"test_system": "human multiple myeloma U266 cells", "experiment": "Cell proliferation, U266 (Example 4)", "type": "cell-based", "conditions": "U-266, compound in 2-hydroxypropyl-β-cyclodextrin", "experimental": "as §1"}, "PKB": {"test_system": "PKB", "experiment": "IGF1-induced PKB activation in MCF7 cells (western blot)", "type": "cell-based, human", "conditions": "10 μM, 48 hr, 50 ng/ml IGF-1 5 minutes, FIG. 3", "experimental": "Tyrosine autophosphorylation of the β-subunit of IGF-1R as well as downstream signaling induced by IGF-1R were assayed in human breast cancer MCF7 cells and in melanoma A375 cells. Cells were seeded in 6-well plates (250,000 A375 cells/well and 300,000 MCF7 cells/well) and 24 hours later medium was replaced by serum-free medium (RPMI supplemented with 100 units/ml penicillin and 100 μg/ml streptomycin). MCF7 cells were exposed for 48 hr to compound 3 at 10 μM concentration, and then stimulated for 5 minutes with 50 ng/ml IGF-1, washed twice with PBS and lysed by boiling sample buffer (10% glycerol, 50 mM Tris-HCl, pH 6.8, 3% SDS, and 5% (3-mercaptoethanol). Equal amounts of protein per lane were separated by 8% SDS-PAGE and transferred to a nitrocellulose membrane (Sartorius AG). Phosphorylated proteins were immunoblotted with anti-phosphoIGF-1R (pIGF-1R), anti-phosphotyrosine-IRS1 (pY-IRS I) and anti-phospho(T308)Akt (pPKB) antibodies. Detection was performed with horseradish peroxidase-conjugated secondary antibody using the ECL system. Blots were then stripped of antibodies, blocked with TBST with 5% low fat milk and re-probed with antibodies detecting both the phosphorylated and the non-phosphorylated corresponding proteins e.g. IGF-1Rβ, IRS1 and PKB."}}, "data": [{"smiles": "O=c1c(O)cc2cnc(/C=C/c3cc(O)c(O)c(Br)c3)sc-2c1O", "note": "[Compound 3]", "values": [{"measurement": "IC50", "setting": "[1]", "value": 1000, "unit": "nM"}, {"measurement": "IC50", "setting": "[2]", "value": 2000, "unit": "nM"}, {"measurement": "IC50", "setting": "[3]", "value": 1000, "unit": "nM"}, {"measurement": "IC50", "setting": "human myeloma CAG cells", "value": 1200, "unit": "nM"}, {"measurement": "IC50", "setting": "[4]", "value": 3800, "unit": "nM"}, {"measurement": "IC50", "setting": "[5]", "value": 700, "unit": "nM"}, {"measurement": "IGF1-induced activation of the downstream signaling component PKB", "setting": "PKB", "value": "significantly inhibited"}]}]}
